Reference: patent US20220178944A1, “METHODS FOR IDENTIFYING DIFFERENTIAL HISTONE RETENTION FOR EPIGENETIC ALTERATIONS IN GERMLINE DNA OF ANIMALS” (Washington State University, priority 2020, published 2022)

Columns and labels:
[1] = system: Sprague Dawley rats; assay: Histopathology and disease classification, F3 generation atrazine lineage males; type: in vivo, rat
Method: Female and male rats of an outbred strain Hsd:Sprague Dawley SD (Harlan) at 70 to 100 days of age were fed ad lib with a standard rat diet and ad lib tap water. Timed-pregnant females on days 8 through 14 of gestation were administered daily intraperitoneal injections of atrazine (25 mg/kg BW/day dissolved in PBS) (Chem Service, Westchester Pa.) or dimethyl sulfoxide (DMSO) or as previously described. Twenty-five mg/kg for atrazine is 4% of rat oral LD50 and 50% of NOAEL.
The gestating female rats treated were designated as the F0 generation. F1-F3 generation control and atrazine lineages were housed in the same room and racks with lighting, food and water.
Rats were euthanized at 12 months of age by CO2 inhalation and cervical dislocation for tissue harvest. Testis, prostate, ovary, kidney, and gonadal fat pads were fixed in Bouin's solution (Sigma) followed by 70% ethanol, then processed for paraffin embedding and hematoxylin, and eosin (H & E) staining by standard procedures for histopathological examination. Paraffin five micron sections were processed and stained (Nationwide Histology, Spokane Wash., USA).
Full necropsies were performed as required on animals that died prior to the time of scheduled sacrifice at one year and tumor classifications were performed.
Upon dissection a brief examination of abdominal and thoracic organs was performed to look for obvious abnormalities. The tissues evaluated histologically were selected from previous literature showing them to have pathology in transgenerational models, with an emphasis on reproductive organs. Histopathology readers were trained to recognize the specific abnormalities evaluated for this study in rat testis, ventral prostate and kidney (see below). Two different readers initially evaluated the tissues. […] Readers were blinded to the exposure groups. A set of quality control (QC) slides was generated for each tissue and was read by each reader prior to evaluating any set of experimental slides. These QC slide results are monitored for reader accuracy and concordance.
Testis histopathology criteria included the presence of vacuoles in the seminiferous tubules, azoospermic atretic seminiferous tubules, and ‘other’ abnormalities including sloughed spermatogenic cells in the center of the tubule and a lack of a tubule lumen. Prostate histopathology criteria included the presence of vacuoles in the glandular epithelium, atrophic glandular epithelium and hyperplasia of prostatic gland epithelium (FIG. 25). Kidney histopathology criteria included reduced size of glomerulus, thickened Bowman's capsule, and the presence of proteinaceous fluid-filled cysts >50 μm in diameter (FIG. 25). A cut-off was established to declare a tissue ‘diseased’ based on the mean number of histopathological abnormalities plus two standard deviations from the mean of control group tissues, as assessed by each of the individual readers. This number (i.e. greater than two standard deviations) was used to classify rats into those with and without testis, prostate, or kidney disease in the F3 generation lineage. A rat tissue section was finally declared ‘diseased’ only when at least two of the three readers marked the same tissue section ‘diseased’.
Lean phenotype was assessed with a decrease in adipocyte size (area), body mass index (BMI) and abdominal adiposity. BMI was calculated with weight (g)/length (cm)^2 with the length of the animal measured from the nose to the base of the tail. Gonadal fat pad slides were imaged using a Nikon Eclipse E800 microscope (10×) with an AVT Prosilica GE1050C Color GigE camera. Five field of view image captures were taken per slide in varying parts of the fat pad. Adipocyte size was measured converting pixels into microns using Adiposoft. Measurements of the 20 largest cells from each image for a total of 100 were averaged as hypertrophic cells are the most metabolically relevant and susceptible to cell death. […]

[2] = system: sperm DNA methylation; assay: Sperm differential DNA methylation regions (DMRs), MeDIP-Seq, glyphosate versus control lineage; type: in vivo, rat; settings: F3 generation males, edgeR p<1e-05
Excerpt: (§1) Outbred Sprague Dawley SD male and female rats were fed a standard diet with water ad lib and mated. […] Female and male rats of an outbred strain Hsd:Sprague Dawley SD (Harlan) at 70 to 100 days of age were fed ad lib with a standard rat diet and ad lib tap water.
(§2) The gestating female rats treated were designated as the F0 generation. Breeding for each generation occurred at 70-90 days and 5 different litters were generated with no cousin or sibling breeding to avoid any inbreeding artifacts. Litters were culled to 10 pups (5 males and 5 females) between days 3-5 of birth to avoid litter effects. […] The F3 generation males were aged to 1 year of age for pathology analysis.
Briefly, the epididymis was dissected free of fat and connective tissue, then, after cutting open the cauda, placed into 6 ml of phosphate buffer saline (PBS) for 20 minutes at room temperature. Further incubation at 4° C. will immobilize the sperm. The tissue was then minced, the released sperm pelleted at 4° C. 3,000×g for 10 min, then resuspended in NIM buffer and stored at −80° C. for further processing.
An appropriate amount of rat sperm suspension was used for DNA extraction. […]
Genomic DNA was sonicated and run on 1.5% agarose gel for fragment size verification. […] DNA concentration was measured in Qubit (Life Technologies) with the ssDNA kit (Molecular Probes Q10212). […]

[3] = system: sperm histone H3 retention sites; assay: Sperm differential histone retention regions (DHRs), histone H3 ChIP-Seq, glyphosate versus control lineage; type: in vivo, rat; settings: F3 generation males; F0 25 mg/kg/day i.p. gestation days 8-14; edgeR p<1e-05
Excerpt: as §1, §2
Histone chromatin immunoprecipitation with genomic DNA was performed. Individual rat sperm were collected, and the sperm counts were determined for each individual. A sonication of 10 seconds was performed for each sperm sample to remove any somatic cell contamination using a Sonic Dismembrator Model 300 (Thermo Scientific Fisher, USA) then centrifuged 1800×g for 5 minutes at 4° C. then resuspended and counted individually on a Neubauer counting chamber (Propper manufacturing Co., Inc., New York, USA). The sperm samples were reconstituted up to 1 ml with PBS (phosphate buffered saline). […]

[4] = in vivo; cited from earlier work
[5] = cited from earlier work
[6] = Glyphosate metabolism turnover (half-life); type: in vivo; settings: worked out from 2-4 half-lives per 24-hour period
[7] = F3 generation atrazine lineage males, 1 year of age, # evaluated 55

| Compound | prevalence of transgenerational lean pathology in the exposed population ([1]; F3 generation atrazine lineage) | # affected, Kidney disease [1, 7] | # affected, Lean [1, 7] | # affected, Obese [1, 7] | # affected, Prostate disease [1, 7] | # affected, Testis disease [1, 7] | # affected, Tumor [1, 7] | # affected, Puberty Late ([1]; F3 generation atrazine lineage males, # evaluated 55) | # affected, Puberty Early ([1]; F3 generation atrazine lineage males, F0 25 mg/kg/day i.p. gestation days 8-14, # evaluated 55) | total number of sperm DMRs, control versus glyphosate (All Window) ([2]; F0 25 mg/kg/day i.p. gestation days 8-14) | number of sperm DMRs with multiple neighboring 1000 bp windows, control versus glyphosate [2] | number of sperm DHRs, glyphosate versus control [3] | half-life (metabolism turnover) [4] [h] | No Observational Adverse Effect Level (NOAEL) dose ([5]; direct exposure, mammalian rat model) [mg/kg per day] | No Observable Adverse Effect Level (NOAEL) exposure ([5]; rat, in vivo) [mg/kg/day] | daily decrease of concentration during the transient exposure period [6] |
| --- | --- | --- | --- | --- | --- | --- | --- | --- | --- | --- | --- | --- | --- | --- | --- | --- |
| CCNc1nc(Cl)nc(NC(C)C)n1 [atrazine] | nearly a third of the animals | 8 | 15 | 4 | 4 | 12 | 1 | 10 | 0 |  |  |  |  |  |  |  |
| O=C(O)CNCP(=O)(O)O [glyphosate] |  |  |  |  |  |  |  |  |  | 340 | 11 | 836 | 5 to 10 | 50 | 50 | 75-90% |
